Measurements from patent US20220227745A1, “Compounds For Modulating FXR” (NANJING RUIJIE PHARMA TECH CO., LTD., priority 2019, published 2022).

Legend:
FXR LBD, GST = target: T1, FXR LBD, GST (Homo sapiens, UniProt Q96RI1); test: FXR Binding Assay (TR-FRET, Fluorescein-SRC2-2 coactivator peptide); conditions: for Emax: % Activity relative to positive control, read-out: Pct Effect (Emax %); for EC50: TR-FRET FXR LBD coactivator recruitment
T1 construct: FXR LBD, GST; purchased Invitrogen PV4834
T1 sequence (Q96RI1 262-486 limits assumed): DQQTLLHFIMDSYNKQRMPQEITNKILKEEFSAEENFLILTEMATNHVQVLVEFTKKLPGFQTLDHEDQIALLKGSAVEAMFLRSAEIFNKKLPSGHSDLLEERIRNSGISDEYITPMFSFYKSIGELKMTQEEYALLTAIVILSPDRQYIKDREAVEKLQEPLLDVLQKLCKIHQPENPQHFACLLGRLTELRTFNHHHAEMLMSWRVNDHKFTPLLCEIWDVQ
Method: The interaction between the present compounds and FXR are evaluated by Time-Resolved Fluorescence Resonance Energy Transfer (TR-FRET) competition assay. FRET describes a radiation-free energy transfer between two chromophores: a donor fluorophore in its excited state can transfer energy to an acceptor fluorophore in close proximity (typically <10 nm). In contrast to standard FRET, TR-FRET unites time-resolved fluorescence (TRF) and the FRET principle, TRF use a long-lifetime lanthanide chelate as the donor species, while lanthanide chelates are unique in that their excited-state lifetime can be on the order of a millisecond or longer. Suitable neighbors for FRET are known in the art and can be obtained.
The assay was performed in following steps: first, prepared a) 1 mM compounds (100×) in DMSO; b) reaction buffer containing 1× buffer G with 10 mM DTT; c) 4×FXR LBD (20 nM) in 1× chilled buffer G. Second, performed 3-fold serial dilution of 1 mM test compounds using DMSO from 1 mM, 10 doses in a 96-well plate (249944, Nunc). Then, used complete buffer G to dilute each 100× compounds serial dilution to 2×. Third, added 10 μl 2× compound serial dilution into 384-well plate (3677, Corning). Then, added 5 μl FXR LBD into the assay plate. Prepared a solution containing 2 μM fluorescein-SRC2-2 (4×) and 20 nM Tb anti-GST antibody (4×) in buffer G at room temperature and started the reaction by adding 5 μl the above solution into each well of the assay plate. Centrifuged the assay plates at 1000 g for 1 min and then incubated at room temperature for lhr protected from light. Finally, the plate was read at wavelengths of 520 nm and 495 nm on Envision 2104 plate reader (PerkinElmer).
A ratio (Ratio520 nm/495 nm−Ratiobackground) was calculated for each well. The activity ratio was calculated as follow: […]
Ratiopositive: The average ratio for the positive control across the plate.
Ratiovehicle: The average ratio for negative controls across the plate.
(§1) EC50 was calculated by fitting % Activity values and log of compound concentrations to nonlinear regression (dose response-variable slope) with GraphPad 5.0.
(§2) X: log of compound concentration.

[1] = target: T2, hFXR-LBD (FXR-GAL4 chimeric receptor) (Homo sapiens, UniProt Q96RI1); test: FXR Transactivation Assay (GAL4 luciferase reporter in HEK293T cells); format: cell-based
T2 construct: host or cells: HEK293T
T2 sequence (Q96RI1 262-486 limits assumed): T1 sequence (Q96RI1 262-486 limits assumed)
Method: FXR Transactivation Assay
The present compounds were tested to assess their ability to stimulate FXR transactivation activity. The hFXR-LBD, coding sequence was inserted into the pBIND expression vector (Promega, E1581) to express FXR-GAL4 binding domain chimeric receptors. This expression vector and reporter vector (pGL4.35 which carry a stably integrated GAL4 promoter driven luciferase reporter gene) were co-transfected into HEK293T host cells. Upon agonist binding to the corresponding FXR-GAL4 chimeric receptor, the chimeric receptor binds to the GAL4 binding sites and stimulates the reporter gene.
All the working stock were shake for 5 min on plate shaker (QILINBEIER). Second, all cells were cultured as ATCC recommended. HEK293T cells were assayed in exponential growth phase. Removed culture medium from the flask and rinsed cells with PBS. Added TrypLE solution to the flask and make cells detach. Next, cells were washed once with complete growth medium. Then, cells were pelleted and washed twice with PBS to remove phenol red and resuspend them in medium to a proper concentration. Only cells with viability greater than 90% were used for assays. Seeded 6×10^6 HEK293T cells into a 100 mm dish and incubated at 37° C. under 5% CO2 atmosphere for 16 h. Third, Trans-IT reagent and Opti-MEM mix by inversion and incubate 5 min at room temperature. The cell transfection was performed by mixing DNA and the reagent mixture, as well as 6 μg GAL4-FXR plasmid or 2 μg pGL4.35 luciferase plasmid, respectively. The reagent mixture was added to a 100 mm dish and incubated for 4-7 hrs at 37° C. under 5% CO2 atmosphere. Fourth, transferred 75 nl compound dilutions into 384-well assay plates (PerkinElmer) and seeded HEK293T cells at 17,000 cells/well using phenol red-free DMEM containing 5% charcoal/dextran-treated FBS. Then, cells were incubated for 16-20 h at 37° C. under 5% CO2 atmosphere. Finally, added 25 μl Steady-Glo™ Luciferase Assay Reagent into each well of 384-well assay plate, and then shake plate for 5 min protected from light on a plate shaker. Then, the luminescence value was read on Evision 2104 plate reader (PerkinElmer).
The activity ratio was calculated as follow: […]
RLU: Resulting Luminescence
RLUpositive: The average RLU for the positive controls across the plate.
RLUvehicle: The average RLU for negative controls across the plate.
as §1, §2

Row | Compound | Emax (FXR LBD, GST) [%] | EC50 (FXR LBD, GST) [nM] | EC50 [1] [nM]
1 | Cn1cc(C(=O)O)c2ccc(N3CCN(CCc4c(-c5c(Cl)cccc5Cl)noc4C4CC4)CC3)cc21 [Example I1, 6-(4-(2-(5-cyclopropyl-3-(2,6-dichlorophenyl)isoxazol-4-yl)ethyl)piperazin-1-yl)-1-methyl-1H-indole-3-carboxylic Acid] | 161 | 58 | 101
2 | Cn1cc(C(=O)O)c2ccc(N3CCN(C(=O)Cc4c(-c5c(Cl)cccc5Cl)noc4C4CC4)CC3)cc21 [Example I2, 6-(4-(2-(5-cyclopropyl-3-(2,6-dichlorophenyl)isoxazol-4-yl)acetyl)piperazin-1-yl)-1-methyl-1H-indole-3-carboxylic Acid] | 75.1 | 5110 | 11100
3 | CC(C)c1onc(-c2c(Cl)cccc2Cl)c1CCN1CCN(c2ccc3c(C(=O)O)cn(C)c3c2)CC1 [Example I3, 6-(4-(2-(3-(2,6-dichlorophenyl)-5-isopropylisoxazol-4-yl)ethyl)piperazin-1-yl)-1-methyl-1H-indole-3-carboxylic Acid] | 192 | 91 | 239
4 | O=C(O)c1ccc2nc(N3CCN(CCc4c(-c5c(Cl)cccc5Cl)noc4C4CC4)CC3)sc2c1 [Example I4, 2-(4-(2-(5-cyclopropyl-3-(2,6-dichlorophenyl)isoxazol-4-yl)ethyl)piperazin-1-yl)benzo[d]thiazole-6-carboxylic Acid] | 89.8 | 244 | 1500
5 | O=C(O)c1cc(F)c2nc(N3CCN(CCc4c(-c5ccccc5OC(F)(F)F)noc4C4CC4)CC3)sc2c1 [Example I5, 2-(4-(2-(5-cyclopropyl-3-(2-(trifluoromethoxy)phenyl)isoxazol-4-yl)ethyl)piperazin-1-yl)-4-fluorobenzo[d]thiazole-6-carboxylic Acid] | 116 | 297 | 2380
6 | O=C(O)c1ccc2cc(N3CCN(CCc4c(-c5c(Cl)cccc5Cl)noc4C4CC4)CC3)ccc2n1 [Example I6, 6-(4-(2-(5-cyclopropyl-3-(2,6-dichlorophenyl)isoxazol-4-yl)ethyl)piperazin-1-yl)quinoline-2-carboxylic Acid] | 142 | 118 | 459
7 | Cn1cc(C(=O)O)c2ccc(N3CCCN(CCc4c(-c5c(Cl)cccc5Cl)noc4C4CC4)CC3)cc21 [Example I7, 6-(4-(2-(5-cyclopropyl-3-(2,6-dichlorophenyl)isoxazol-4-yl)ethyl)-1,4-diazepan-1-yl)-1-methyl-1H-indole-3-carboxylic Acid] | 98.1 | 25 | 743
8 | CC1CN(c2ccc3c(C(=O)O)cn(C)c3c2)CCN1CCc1c(-c2c(Cl)cccc2Cl)noc1C1CC1 (stereo not drawn) [Example I8, 6-(4-(2-(5-cyclopropyl-3-(2,6-dichlorophenyl)isoxazol-4-yl)ethyl)-3-methylpiperazin-1-yl)-1-methyl-1H-indole-3-carboxylic Acid] | 202 | 94 | 138
9 | CC1CCN(c2ccc3c(C(=O)O)cn(C)c3c2)CCN1CCc1c(-c2c(Cl)cccc2Cl)noc1C1CC1 (stereo not drawn) [Example I55, 6-(4-(2-(5-cyclopropyl-3-(2,6-dichlorophenyl)isoxazol-4-yl)ethyl)-5-methyl-1,4-diazepan-1-yl)-1-methyl-1H-indole-3-carboxylic Acid] | 70.9 | 2770 | 
10 | COC(=O)c1cn(C)c2cc(N3CCC(C)N(CCc4c(-c5c(Cl)cccc5Cl)noc4C4CC4)CC3)ccc12 (stereo not drawn) [Example I56, methyl 6-(4-(2-(5-cyclopropyl-3-(2,6-dichlorophenyl)isoxazol-4-yl)ethyl)-5-methyl-1,4-diazepan-1-yl)-1-methyl-1H-indole-3-carboxylate] |  | > 10000 | 
11 | CC1CC(c2ccc3c(C(=O)O)cn(C)c3c2)CCN1CCc1c(-c2c(Cl)cccc2Cl)noc1C1CC1 (stereo not drawn) [Example I57, 6-(1-(2-(5-cyclopropyl-3-(2,6-dichlorophenyl)isoxazol-4-yl)ethyl)-2-methylpiperidin-4-yl)-1-methyl-1H-indole-3-carboxylic Acid] | 180 | 384 | 
12 | COC(=O)c1cn(C)c2cc(N3CCC(N(C)Cc4c(-c5c(Cl)cccc5Cl)noc4C4CC4)CC3)ccc12 [Example I59, methyl 6-(4-(((5-cyclopropyl-3-(2,6-dichlorophenyl)isoxazol-4-yl)methyl)(methyl)amino)piperidin-1-yl)-1-methyl-1H-indole-3-carboxylate] |  | > 10000 | 
13 | O=C(O)c1cc(F)c2nc(N3CC4CC(C3)C4OCc3c(-c4ccccc4OC(F)(F)F)noc3C3CC3)sc2c1 (stereo not drawn) [Example I60, 2-(6-((5-cyclopropyl-3-(2-(trifluoromethoxy)phenyl)isoxazol-4-yl)methoxy)-3-azabicyclo[3.1.1]heptan-3-yl)-4-fluorobenzo[d]thiazole-6-carboxylic Acid] | 35.3 | 732 | 
14 | Cn1cc(C(=O)O)c2ccc(N3CC4CC(C3)C4OCc3c(-c4c(Cl)cccc4Cl)noc3C3CC3)cc21 (stereo not drawn) [Example I61, 6-(6-((5-cyclopropyl-3-(2,6-dichlorophenyl)isoxazol-4-yl)methoxy)-3-azabicyclo[3.1.1]heptan-3-yl)-1-methyl-1H-indole-3-carboxylic Acid] | 67.7 | 616 | 
15 | Cn1cc(C(=O)O)c2c(F)cc(N3CC4CC(C3)C4OCc3c(-c4c(Cl)cccc4Cl)noc3C3CC3)cc21 (stereo not drawn) [Example I63, 6-(6-((5-cyclopropyl-3-(2,6-dichlorophenyl)isoxazol-4-yl)methoxy)-3-azabicyclo[3.1.1]heptan-3-yl)-4-fluoro-1-methyl-1H-indole-3-carboxylic Acid] | 106 | 102 | 
16 | O=C(O)c1ccc2nc(N3CC4CC(C3)C4OCc3c(-c4c(Cl)cccc4Cl)noc3C3CC3)sc2c1 (stereo not drawn) [Example I65, 2-(6-((5-cyclopropyl-3-(2,6-dichlorophenyl)isoxazol-4-yl)methoxy)-3-azabicyclo[3.1.1]heptan-3-yl)benzo[d]thiazole-6-carboxylic Acid] |  | > 10000 | 
17 | O=C(O)c1ccc2nc(N3CC4CC(C3)C4OCc3c(-c4ccccc4OC(F)(F)F)noc3C3CC3)sc2c1 (stereo not drawn) [Example I66, 2-(6-((5-cyclopropyl-3-(2-(trifluoromethoxy)phenyl)isoxazol-4-yl)methoxy)-3-azabicyclo[3.1.1]heptan-3-yl)benzo[d]thiazole-6-carboxylic Acid] |  | > 10000 | 
18 | O=C(O)c1ccc2nc(N3CC4CC(C3)C4OCc3c(-c4c(Cl)cccc4Cl)noc3C3CC3)sc2c1 (stereo not drawn) [Example I67, 2-(6-((5-cyclopropyl-3-(2,6-dichlorophenyl)isoxazol-4-yl)methoxy)-3-azabicyclo[3.1.1]heptan-3-yl)benzo[d]thiazole-6-carboxylic Acid] |  | > 10000 | 
